Assay results published in EP4568957B1, “SUBSTITUTED PHENYL OXOOXAZOLYL PIPERIDINE DIONE COMPOUNDS” (Bristol-Myers Squibb Company, priority 2023, dated 2025).
Several values for one entry are separate records, joined by “and”; a condition that tells them apart may be missing. Identical values can stand only once.

Tests used:
Format in all cases: cell-based
IKZF4 Eos = biological target: T1, IKZF4 Eos (Homo sapiens, UniProt Q96SW2+Q9H2S9); test: Human Regulatory T Cell Reprogramming Assay; conditions: for DC50: 12-13 days, vs DMSO alone; for IKZF4*** Eos max % or deg. observed: Table E summary, Human Regulatory T Cell Reprogramming Assay (C-1)
T1 construct: endogenous in cells; host or cells: primary human CD4+CD127lowCD25+ Treg cells from healthy leukopaks
T1 sequence (Q9H2S9 whole entry): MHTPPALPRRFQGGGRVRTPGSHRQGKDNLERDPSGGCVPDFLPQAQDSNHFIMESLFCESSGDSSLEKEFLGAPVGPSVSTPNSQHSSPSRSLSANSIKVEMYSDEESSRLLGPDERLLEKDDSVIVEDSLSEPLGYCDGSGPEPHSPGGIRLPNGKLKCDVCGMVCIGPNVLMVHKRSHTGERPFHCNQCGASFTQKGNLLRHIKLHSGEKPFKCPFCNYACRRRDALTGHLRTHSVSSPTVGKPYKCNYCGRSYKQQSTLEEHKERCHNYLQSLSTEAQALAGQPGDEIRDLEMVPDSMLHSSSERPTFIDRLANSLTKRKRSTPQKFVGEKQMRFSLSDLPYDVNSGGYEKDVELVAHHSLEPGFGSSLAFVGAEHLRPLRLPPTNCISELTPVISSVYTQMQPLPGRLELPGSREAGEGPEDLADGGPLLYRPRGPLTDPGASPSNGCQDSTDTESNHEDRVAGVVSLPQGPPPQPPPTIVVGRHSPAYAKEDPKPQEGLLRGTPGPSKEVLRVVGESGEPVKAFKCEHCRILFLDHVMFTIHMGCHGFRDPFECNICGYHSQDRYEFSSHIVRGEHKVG
T1 sequence (Q96SW2 whole entry): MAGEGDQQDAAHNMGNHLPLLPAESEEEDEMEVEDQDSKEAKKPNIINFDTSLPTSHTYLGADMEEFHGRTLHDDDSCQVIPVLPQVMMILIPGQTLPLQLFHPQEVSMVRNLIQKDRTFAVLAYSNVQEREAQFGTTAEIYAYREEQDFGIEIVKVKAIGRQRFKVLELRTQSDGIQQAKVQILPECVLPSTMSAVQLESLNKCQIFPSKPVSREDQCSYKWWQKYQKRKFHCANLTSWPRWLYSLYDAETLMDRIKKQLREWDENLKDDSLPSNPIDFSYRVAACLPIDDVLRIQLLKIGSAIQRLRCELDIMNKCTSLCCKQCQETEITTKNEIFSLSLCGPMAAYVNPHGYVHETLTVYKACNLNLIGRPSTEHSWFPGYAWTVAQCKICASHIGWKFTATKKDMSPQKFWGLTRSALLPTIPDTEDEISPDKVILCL
T1 sequence (Q16531 whole entry partner): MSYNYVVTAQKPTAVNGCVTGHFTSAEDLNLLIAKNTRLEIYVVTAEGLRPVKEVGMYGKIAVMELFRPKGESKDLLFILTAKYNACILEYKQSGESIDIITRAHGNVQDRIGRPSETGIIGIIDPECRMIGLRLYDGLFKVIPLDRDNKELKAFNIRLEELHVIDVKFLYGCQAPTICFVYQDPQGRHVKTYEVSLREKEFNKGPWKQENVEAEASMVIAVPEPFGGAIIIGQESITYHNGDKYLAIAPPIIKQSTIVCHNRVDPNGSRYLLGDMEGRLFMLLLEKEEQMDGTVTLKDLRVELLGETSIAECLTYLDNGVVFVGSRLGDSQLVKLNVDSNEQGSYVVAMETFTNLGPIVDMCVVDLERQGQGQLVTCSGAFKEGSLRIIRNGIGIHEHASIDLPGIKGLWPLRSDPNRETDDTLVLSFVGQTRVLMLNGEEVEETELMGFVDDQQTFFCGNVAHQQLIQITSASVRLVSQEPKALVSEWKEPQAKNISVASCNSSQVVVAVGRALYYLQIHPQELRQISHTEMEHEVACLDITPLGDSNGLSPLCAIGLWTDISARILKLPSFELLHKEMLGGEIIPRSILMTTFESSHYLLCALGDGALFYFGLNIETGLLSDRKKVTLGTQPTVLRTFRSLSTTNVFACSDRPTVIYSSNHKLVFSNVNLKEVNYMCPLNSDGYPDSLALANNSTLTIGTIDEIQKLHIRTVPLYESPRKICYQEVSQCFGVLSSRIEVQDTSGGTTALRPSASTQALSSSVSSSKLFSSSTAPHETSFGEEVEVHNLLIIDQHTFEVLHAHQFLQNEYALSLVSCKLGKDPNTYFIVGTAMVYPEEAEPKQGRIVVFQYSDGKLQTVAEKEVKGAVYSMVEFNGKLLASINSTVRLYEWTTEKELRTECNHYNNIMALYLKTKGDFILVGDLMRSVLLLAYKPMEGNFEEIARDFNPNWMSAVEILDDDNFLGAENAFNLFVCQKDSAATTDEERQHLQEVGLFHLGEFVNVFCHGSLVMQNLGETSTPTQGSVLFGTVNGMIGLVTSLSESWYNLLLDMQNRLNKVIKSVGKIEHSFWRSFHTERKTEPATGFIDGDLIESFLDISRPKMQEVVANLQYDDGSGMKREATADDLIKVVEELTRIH
Procedure: (§1) Human CD4^+ T cells were isolated from fresh healthy leukopaks (Stemcell Technologies) using the RosetteSep Human CD4^+ T cell enrichment cocktail (Stemcell Technologies) and Ficoll density gradient centrifugation. Leukopaks were diluted with an equal volume of phosphate-buffered saline (PBS [Gibco]) supplemented with 2% fetal bovine serum (FBS, VWR Lifescience) and incubated with RosetteSep Human CD4^+ T cell enrichment cocktail for 20 minutes before layering on Ficoll-Paque Plus solution (GE Health Care). The cell-rich interface layer was harvested and washed twice with PBS supplemented with 2% FBS. Regulatory T cells were then isolated manually using the EasySep Human CD4^+CD127^lowCD25^+ Regulatory T cell isolation kit (Stemcell Technologies) according to the manufacturer's instructions. Cells were rested overnight in Roswell Park Memorial Institute (RPMI) 1640 media (Gibco) supplemented with 10% FBS, Pen/Strep (Gibco), MEM-NEAA (Gibco), and sodium pyruvate (Gibco) in a humidified incubator (37 °C, 5% CO2). Cells were then stained for CD4 (clone: RPA-T4, Biolegend), CD25 (clone: 2A3, BD Biosciences), and CD127 (clone: hIL-7R-M21, BD Biosciences). CD4^+CD127^lowCD25^+ cells were sorted on a BD FACS Aria Fusion sorter to a purity of 95%) or greater. Sorted cells were immediately used or cryopreserved for downstream assays.
(§2) Fresh or cryopreserved FACS-sorted CD4^+CD127^lowCD25^+ Treg cells were cultured at 25,000-50,000 cells/well of 96-well round bottom plates in RPMI 1640 media (Gibco) supplemented with 10% FBS, Pen/Strep (Gibco), MEM-NEAA (Gibco), and sodium pyruvate (Gibco). Cells were stimulated with Treg Xpander beads (Thermo Fisher) at cells-to-beads ratio of 1:4 in the presence of 500 U/mL recombinant human IL-2 (Proleukin). Compounds were added at titrated doses and cells were incubated at 37 °C, 5% CO2 for 12-13 days. Recombinant human IL-2 and compound were replenished every 2-3 days during the entire culture duration. On day 12 or 13, cells were restimulated with phorbol 12-myristate 13-acetate (PMA,) and ionomycin in the presence of the protein transport inhibitors brefeldin A and monensin (eBioscience Cell Stimulation Cocktail plus protein transport inhibitors, 500x, Catalog number 00-4975-93) before proceeding with flow cytometry staining and analysis.
(§3) For flow cytometry staining, cells were washed twice with flow cytometry staining buffer (Thermo Fisher) and incubated in Human Tru-stain Fc block (Biolegend) for 10 minutes before adding eFluor780 viability dye (Thermo Fisher) and surface marker antibody cocktail for 30 minutes at 4 °C. Cells were then fixed and permeabilized by incubation with FoxP3 transcription factor staining buffer (Thermo Fisher) for 30 minutes at 4 °C as per the kit manufacturer's instructions. Cells were washed twice with the Perm/Wash buffer supplied in the kit as per the manufacturer's instructions and incubated overnight at 4 °C with an intracellular antibody cocktail comprised of antibodies specific for the transcription factors shown in Table C. Cells were washed twice with Perm/Wash buffer and resuspended in flow cytometry staining buffer (Thermo Fisher) prior to acquisition. Sample acquisition and analysis was performed using a BD LSRFortessa (BD Biosciences) flow cytometer. Single stain controls for each fluorochrome were prepared using UltraComp eBead Compensation Beads (Thermo Fisher). Data were analyzed using FlowJo version 10 and GraphPad Prism Software. TABLE C

IKZF2 Helios [1] = biological target: T2, IKZF2 Helios (Homo sapiens, UniProt Q96SW2+Q9UKS7); test: Human Regulatory T Cell Reprogramming Assay; parameters: endogenous in cells; host or cells: primary human CD4+CD127lowCD25+ Treg cells from healthy leukopaks; conditions: CD4+CD127lowCD25+ Treg cells; for IKZF2 Helios max % deg. observed: 12-13 days with compound; for DC50: 12-13 days, vs DMSO alone
T2 sequence (Q9UKS7 whole entry): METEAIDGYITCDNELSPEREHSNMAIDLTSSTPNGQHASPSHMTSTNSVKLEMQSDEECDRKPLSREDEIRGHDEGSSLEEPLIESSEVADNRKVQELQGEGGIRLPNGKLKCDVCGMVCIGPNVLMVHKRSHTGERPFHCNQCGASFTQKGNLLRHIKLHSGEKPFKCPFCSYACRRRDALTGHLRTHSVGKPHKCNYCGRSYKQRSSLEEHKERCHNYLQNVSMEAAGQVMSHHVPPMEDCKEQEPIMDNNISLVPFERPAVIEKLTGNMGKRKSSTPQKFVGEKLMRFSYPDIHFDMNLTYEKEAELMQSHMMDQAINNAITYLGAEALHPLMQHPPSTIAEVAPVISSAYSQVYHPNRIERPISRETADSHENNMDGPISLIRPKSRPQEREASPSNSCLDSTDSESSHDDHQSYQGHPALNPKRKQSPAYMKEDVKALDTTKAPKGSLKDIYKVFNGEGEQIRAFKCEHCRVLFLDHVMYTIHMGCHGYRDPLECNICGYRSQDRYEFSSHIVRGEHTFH
T2 sequence (Q96SW2 whole entry): as the sequence (Q96SW2 whole entry) above
T2 sequence (Q16531 whole entry partner): as the sequence (Q16531 whole entry partner) above
Procedure: as §1, §2, §3

IKZF1 Ikaros = IKZF1 Ikaros (Homo sapiens, UniProt Q13422+Q96SW2); test: Jurkat Cellular Degradation Assay; parameters: fluorescently labelled antibodies against Helios, Ikaros and Aiolos; endogenous in cells; host or cells: Jurkat cells; conditions: Jurkat cells, 24 h; for DC50: 50% reduction of protein vs DMSO alone; for IKZF1 Ikaros max % deg. observed: 100% = complete degradation
Chain of IKZF1 Ikaros (Q13422 whole entry): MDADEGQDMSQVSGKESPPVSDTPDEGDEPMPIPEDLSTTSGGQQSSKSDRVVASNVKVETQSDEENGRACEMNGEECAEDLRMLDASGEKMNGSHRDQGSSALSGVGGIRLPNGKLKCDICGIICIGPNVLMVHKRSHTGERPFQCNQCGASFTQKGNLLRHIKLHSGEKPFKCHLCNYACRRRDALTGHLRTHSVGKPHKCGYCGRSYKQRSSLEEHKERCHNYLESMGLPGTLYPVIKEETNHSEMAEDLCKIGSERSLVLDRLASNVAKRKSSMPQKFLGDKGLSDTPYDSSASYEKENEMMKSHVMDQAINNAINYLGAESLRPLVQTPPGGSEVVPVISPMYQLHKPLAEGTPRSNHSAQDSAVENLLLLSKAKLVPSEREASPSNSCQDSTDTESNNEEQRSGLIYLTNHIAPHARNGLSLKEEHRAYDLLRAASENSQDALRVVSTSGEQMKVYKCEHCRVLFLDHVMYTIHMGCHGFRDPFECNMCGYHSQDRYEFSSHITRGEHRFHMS
Chain of IKZF1 Ikaros (Q96SW2 whole entry): as the sequence (Q96SW2 whole entry) above
Chain of IKZF1 Ikaros (Q16531 whole entry partner): as the sequence (Q16531 whole entry partner) above
Procedure: (§4) Jurkat cells were plated at 80,000 cells/well in 40 µL RPMI + 10% FBS in a 384-well cell culture plate prior to using acoustic dispensing technology for adding a compound of interest. Cell cultures were incubated for 24 h at 37 °C and 5% CO2. In order to facilitate analysis, cell cultures were spun down at 200 rpm for 5 min and the supernatant was discarded. After shaking the plate to dislodge the cell pellet, cells were resuspended in 50 µL of Fixation Buffer (eBioscience FoxP3 buffer set 00-5523-00) for 60 min at room temperature. After centrifuging and discarding the supernatant, cells were permeabilized with 50 µL of Permeabilization buffer (eBioscience FoxP3 buffer set 00-5523-00) for 10 min at room temperature. Following permeabilization, cells were spun down and the supernatant was replaced with 20 µL fluorescently labelled antibodies against Helios, Ikaros and Aiolos or corresponding Isotype controls in 1× Permeabilization buffer (Ikaros-Alexa488 [Biolegend, Cat #368408, 1:50], Helios-PE [CST, Cat #29360, 1:50]. Aiolos-Alexa647 [Biolegend, Cat #371106 Biolegend, 1:25]) and staining reactions were incubated for 1 h at room temperature while protected from light. Subsequently, 30 µL of 1× Permeabilization buffer was added prior to centrifuging the cells and discarding the supernatant. Stained cells were resuspended in 25 µL of flow cytometry staining buffer [PBS + 0.2% bovine serum albumin (BSA)] and analyzed using an Intellicyt Ique Plus flow cytometer. TABLE A-1

IKZF2 Helios [2] = biological target: T2, IKZF2 Helios; test: Jurkat Cellular Degradation Assay; parameters: fluorescently labelled antibodies against Helios, Ikaros and Aiolos; endogenous in cells; host or cells: Jurkat cells; conditions: for DC50: 50% reduction of protein vs DMSO alone; for IKZF2** Helios max % deg. observed: Table E summary, Jurkat Cellular Degradation Assay (A-1)
Procedure: as §4

IKZF3 Aiolos = IKZF3 Aiolos (Homo sapiens, UniProt Q96SW2+Q9UKT9); test: Jurkat Cellular Degradation Assay; parameters: fluorescently labelled antibodies against Helios, Ikaros and Aiolos; endogenous in cells; host or cells: Jurkat cells; conditions: Jurkat cells, 24 h; for DC50: 50% reduction of protein vs DMSO alone; for IKZF3 Aiolos max % deg. observed: 100% = complete degradation
Chain of IKZF3 Aiolos (Q9UKT9 whole entry): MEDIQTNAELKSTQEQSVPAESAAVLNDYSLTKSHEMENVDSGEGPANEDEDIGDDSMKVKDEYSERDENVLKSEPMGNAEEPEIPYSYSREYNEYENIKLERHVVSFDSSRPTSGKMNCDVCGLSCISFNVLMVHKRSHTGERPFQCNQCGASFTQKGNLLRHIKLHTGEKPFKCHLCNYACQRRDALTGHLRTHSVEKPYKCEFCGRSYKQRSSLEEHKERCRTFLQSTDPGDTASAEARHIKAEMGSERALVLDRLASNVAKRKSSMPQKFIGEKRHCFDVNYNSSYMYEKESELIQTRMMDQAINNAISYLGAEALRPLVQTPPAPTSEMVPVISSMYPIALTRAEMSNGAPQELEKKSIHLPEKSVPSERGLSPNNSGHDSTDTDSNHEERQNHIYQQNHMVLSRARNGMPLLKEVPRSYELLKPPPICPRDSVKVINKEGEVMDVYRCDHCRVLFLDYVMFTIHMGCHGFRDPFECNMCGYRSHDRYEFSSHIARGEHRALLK
Chain of IKZF3 Aiolos (Q96SW2 whole entry): as the sequence (Q96SW2 whole entry) above
Chain of IKZF3 Aiolos (Q16531 whole entry partner): as the sequence (Q16531 whole entry partner) above
Procedure: as §4

SMILES	DC50 (IKZF4 Eos; CD4+CD127lowCD25+ Treg cells) [nM]	IKZF4*** Eos max % or deg. observed (IKZF4 Eos) [%]	IKZF2 Helios max % deg. observed (IKZF2 Helios [1]) [%]	DC50 (IKZF2 Helios [1]) [nM]	DC50 (IKZF1 Ikaros) [nM]	IKZF1 Ikaros max % deg. observed (IKZF1 Ikaros)	DC50 (IKZF2 Helios [2]; Jurkat cells, 24 h) [nM]	IKZF2** Helios max % deg. observed (IKZF2 Helios [2]) [%]	DC50 (IKZF3 Aiolos) [nM]	IKZF3 Aiolos max % deg. observed (IKZF3 Aiolos)	IKZF4 Eos max % deg. observed (IKZF4 Eos; CD4+CD127lowCD25+ Treg cells, 12-13 days with compound) [%]	IKZF2 Helios max % deg. observed (IKZF2 Helios [2]; Jurkat cells, 24 h, 100% = complete degradation) [%]
Cc1cc(-c2ccc(-c3cn(C4CCC(=O)NC4=O)c(=O)o3)c(F)c2)nc(N)c1NCC1CCOCC1 (centres unmarked) [Example 3, 3-(5-(4-(6-amino-4-methyl-5-(((tetrahydro-2H-pyran-4-yl)methyl)amino)pyridin-2-yl)-2-fluorophenyl)-2-oxooxazol-3(2H)-yl)piperidine-2,6-dione]	4	84	73	247	5600	64% and 57%	36	92	9490	48% and 54%	–	–
O=C1CCC(n2cc(-c3ccc(Br)cc3F)oc2=O)C(=O)N1 (centres unmarked) [Comparative Compound B, 3-(5-(4-bromo-2-fluorophenyl)-2-oxooxazol-3(2H)-yl)piperidine-2,6-dione, reference compound]	> 1000	11	6	> 1000	> 10000	24%	> 10000	11	> 10000	25%	–	–
COC1CCN(Cc2ccc(-c3ccc(-c4cn(C5CCC(=O)NC5=O)c(=O)o4)c(F)c3)nc2N)CC1 (centres unmarked) [Example 4, 3-(5-(4-(6-amino-5-((4-methoxypiperidin-1-yl)methyl)pyridin-2-yl)-2-fluorophenyl)-2-oxooxazol-3(2H)-yl)piperidine-2,6-dione]	4	80	66	155	1200	69%	34	91	3010	61%	–	–
Cc1cc(-c2ccc(-c3cn(C4CCC(=O)NC4=O)c(=O)o3)c(F)c2)nc(N)c1COC1CCOCC1 (centres unmarked) [Example 5, 3-(5-(4-(6-Amino-4-methyl-5-(((tetrahydro-2H-pyran-4-yl)oxy)methyl)pyridin-2-yl)-2-fluorophenyl)-2-oxooxazol-3(2H)-yl)piperidine-2,6-dione]	7	46	–	–	7900	51%	50	92	> 10000	38%	46	92
CO[C@H]1C[C@H](Oc2c(C)cc(-c3ccc(-c4cn(C5CCC(=O)NC5=O)c(=O)o4)c(F)c3)nc2N)C1 (relative stereo) [Example 2, trans 3-(5-(4-(6-amino-5-(3-methoxycyclobutoxy)-4-methylpyridin-2-yl)-2-fluorophenyl)-2-oxooxazol-3(2H)-yl)piperidine-2,6-dione]	3	72	74	205	4380	–	37	92	2320	–	–	–

The next lines start with the values.

DC50 (IKZF4 Eos; CD4+CD127lowCD25+ Treg cells) [nM]	IKZF4*** Eos max % or deg. observed (IKZF4 Eos) [%]	IKZF2 Helios max % deg. observed (IKZF2 Helios [1]) [%]	DC50 (IKZF2 Helios [1]) [nM]	DC50 (IKZF1 Ikaros) [nM]	IKZF1 Ikaros max % deg. observed (IKZF1 Ikaros)	DC50 (IKZF2 Helios [2]; Jurkat cells, 24 h) [nM]	IKZF2** Helios max % deg. observed (IKZF2 Helios [2]) [%]	DC50 (IKZF3 Aiolos) [nM]	IKZF3 Aiolos max % deg. observed (IKZF3 Aiolos)	IKZF4 Eos max % deg. observed (IKZF4 Eos; CD4+CD127lowCD25+ Treg cells, 12-13 days with compound) [%]	IKZF2 Helios max % deg. observed (IKZF2 Helios [2]; Jurkat cells, 24 h, 100% = complete degradation) [%]	SMILES
> 1000	0	1	> 1000	1520	70%	> 10000	27	> 10000	52%	–	–	O=C1CCC(n2cc(-c3ccccc3)oc2=O)C(=O)N1 (centres unmarked) [Comparative Compound A, 3-(2-oxo-5-phenyloxazol-3(2H)-yl)piperidine-2,6-dione, reference compound]
2	84	72	45	1510	63%	22	89	600	55%	–	–	CC1(C)Cc2cc(-c3ccc(-c4cn(C5CCC(=O)NC5=O)c(=O)o4)c(F)c3)nc(N)c2O1 (centres unmarked) [Example 1, 3-(5-(4-(7-amino-2,2-dimethyl-2,3-dihydrofuro[2,3-c]pyridin-5-yl)-2-fluorophenyl)-2-oxooxazol-3(2H)-yl)piperidine-2,6-dione]
